# In patent US20220260566A1, “IMMUNITY MECHANISM AND THERAPEUTIC DRUG FOR GASTROINTESTINAL DISEASES” (GUANGZHOU WOMEN AND CHILDREN'S MEDICAL CENTER, priority 2018, published 2022):
# “Also recorded” adds a separate entry of the source.
# Key:
# [1] = system: CD68+ macrophages and TNF-α in the colonic mucosa; assay: Immunofluorescence of colonic mucosa before and after treatment: CD68+ macrophages, TNF-α, PDE4B; assay type: in vivo, human; settings: for PDE4B: summary of immunological results after treatment; for macrophage invasion in colonic mucosa: children with colitis or IBD, after vs before methylprednisolone or anti-TNF-α, FIG. 6C
# [2] = system: platelet aggregation (CD41 clusters) in the colonic mucosa; assay: Immunofluorescence of colonic mucosa before and after treatment: platelet aggregation (CD41 clusters); assay type: in vivo, human; settings: children, after vs before dipyridamole treatment
# Description: (§1) Use formalin-fixed and paraffin-embedded paraffin blocks to prepare 3 um tissue sections. After deparaffinization, blocking antibodies (PBS containing 5% normal donkey or goat serum and 0.3% Triton X-100) are incubated for 1 hour at room temperature, and washed with PBS Then incubate the primary antibody (CD39, CD41, pT71-ATF2 or pS133-CREB) overnight in a 4 C dark humidified box. Then, after washing with PBS, incubate the secondary antibodies (goat anti-mouse IgG1 combined with AF488 and goat anti-rabbit IgG combined with Cy3) for 1 hour at room temperature, and then incubate the anti-quencher containing DAPI. Then, use the Lycra automatic inverted fluorescence microscope to observe and take pictures (20×0.75), and use the Lycra X image analysis software to process the brightness, luminosity, contrast and color balance of the image to restore the image as much as possible. For each observation condition, 4-5 areas in each mucosal section were randomly selected for observation, and the CD41 aggregation (fluorescence diameter greater than 7 μm) was measured and counted using the card X image analysis software.
# [3] = system: activated ATF2 and CREB; assay: Immunofluorescence of colonic mucosa: activated ATF2 and CREB co-expressed with CD39; assay type: in vivo, human; settings: children, after vs before dipyridamole treatment
# Description: [Worded in the source for another target; this target is reported under the same test.] as §1, with “[…]-ATF2” for “pT71-ATF2”, “[…]-CREB)” for “pS133-CREB)”, “Lycra X” left out
# [4] = system: TNF-α in monocytes and macrophages; assay: TNF-α expression in monocytes and macrophages in vitro; assay type: cell-based; settings: in vitro and in vivo
# [5] = system: CD39; assay: Immunofluorescence of colonic mucosa before and after treatment: CD39 expression; assay type: in vivo, human
# Description: as §1
# [6] = system: CD39 in colonic intraepithelial T cells; assay: CD39 expression of immune cells in DSS colitis model (flow cytometry); assay type: in vivo, mice
# Description: From the second day of treatment, DSS was added to drinking water (2.5%) for 7 days. The control mice were given regular food and water. In order to analyze colon immune cells, the present invention harvests the colon and removes excess fat. After washing with ice-cold PBS, the colon was cut into pieces approximately 0.3-0.5 cm in length. After gentle rotation in the dissociation solution (HBSS without Ca/Mg, with 5 mM EDTA and 2% FBS) at 37° C. for 40 minutes, the intraepithelial lymphocytes (IEL) were pelleted, washed and resuspended in staining buffer (PBS 2% FBS). The remaining undigested colon tissue samples were gently rotated in the digestion solution (RPMI1640 containing 2% FBS, 2 mg/mL collagenase IV, 0.4 U/mL dispase and 1 μg/mL DNase) at 37° C. for 45 minutes. Pellet lamina propria lymphocytes (LPL), wash and resuspend in staining buffer. T cell plates (CD45-APC-Cy7, CD3-BV711, […]-Cy7, CD8-BV785, γδT-BV421 and CD4-APC) or myeloid plates (MHC II-BV550, CD11b-BV510 and CD39-PE-Cy7) were stained on ice for 30 minutes, and then analyzed on a FACSAria SORP flow cytometer (BD Science).
# [7] = system: HEK 293T cells stably transfected with the cAMP reporter gene GloSensor-22F cAMP plasmid; assay: cAMP reporter assay (GloSensor-22F cAMP plasmid); assay type: cell-based; settings: HEK 293T reporter cells; 3 independent experiments; forskolin as positive control
# From the text: FIG. 4: Highly inflammatory macrophage and dendritic cell (DC) infiltration in colitis and IBD patients compared to control subjects. […] The red and navy blue dots represent individual genes that pass the P value (≤0.05) and log 2 (Fold Change) (red, ≥1; navy blue, ≤−1) threshold. […] Forskolin, which increases the concentration of cAMP by activating adenylate cyclase, was used as a positive control. […] Colonic mucosa sections were stained with anti-CD68 to mark macrophages, and stained with NLRP3 and ASC for inflammasome. […] The P value was calculated using the Mann-Whitney U test, *, P<0.05****, P<0.0001. (D) Heat map showing the relative expression of colitis/IBD risk genes in myeloid cells.
# [8] = system: subjects with colitis confirmed by endoscopy and subjects with undefined IBD (IBDU); assay: Clinical trial of dipyridamole in 9 children with endoscopy-confirmed colitis or undefined IBD (Table 6); assay type: in vivo, human
# From the text: The inventors also conducted clinical trial studies in subjects with colitis confirmed by endoscopy and subjects with undefined IBD (IBDU) (Table 6).
# In Table 6, PLT stands for platelet count, HGB stands for hemoglobin, and ALB stands for albumin.
# [9] = system: CD39 expression in CD8+ T cells; assay: CD39 expression during CD8+ T cell activation; assay type: cell-based; settings: dose-dependent manner
# [10] = system: children with colitis; assay: Clinical trial of dipyridamole in children with colitis (Table 5, 23 patients); assay type: in vivo, human
# From the text: In the following, it is investigated whether the cAMP activation pathway regulates CD39 expression in T cells. […] The clinical trial was approved by the Ethical Review Committee of Guangzhou Women and Children's Medical Center and registered in the China Clinical Trial Registration Center (ChiCTR1800019803). All patients or family members signed an informed consent form.
# [11] = system: DSS-induced acute colitis; assay: DSS-induced acute colitis model; assay type: in vivo, C57BL/6J mice
# Description: Male C57BL/6J mice (20-22 g), six to eight weeks old, were purchased from Guangzhou University of Traditional Chinese Medicine. The mice were given regular food and water before the experiment. Weight-matched mice were used in all studies Animal research was approved by the Animal Care and Utilization Committee of Guangzhou Medical University (permit number: 2019-471) and was conducted in accordance with institutional guidelines.
# The control mice were given regular food and water. The mice were monitored daily and if the weight loss exceeded 20%, they were euthanized.
# For hematoxylin and eosin (H&E) staining, the colon was fixed in 4% paraformaldehyde (PFA) for 24 hours and embedded in paraffin. Prepare sections (3 μm) and deparaffinize before staining
# To detect platelet aggregation in colon slices, the tissue was fixed in 4% PFA for 24 hours, cryoprotected in 30% sucrose for 48 hours, and then embedded in an Optimal Cutting Temperature (O.C.T.) compound. The frozen sections (5 μm) were washed, blocked with 10% goat serum, and incubated with anti-mouse CD41-FITC (133903, BioLegend, CA, USA) at 4° C. overnight.
# After washing with PBS to remove unbound antibodies, the sections were fixed with […] anti-fading fixation medium (H-1200, Vector Laboratories, CA, USA) with DAPI for nuclear staining The immunofluorescence staining and image processing were performed as described above. Platelet aggregates are defined as CD41+ clusters (diameter >7 μm). Leica X image analysis software (Leica, Hamburg, Germany) and ImageJ software (National Institutes of Health, Maryland, USA) were used to count and analyze the number of CD41+ clusters per square millimeter. For each colon section, platelet aggregation in 5 randomly selected areas was recorded.
# In order to analyze the expression of cytokines, the residual mesenteric fat in the colon was removed, weighed and dispersed in a single cell suspension with 1 mL of PBS. After centrifugation at 1000×g for 10 minutes at 4° C., the supernatant was taken to determine the concentration of TNF-α, IL-1β and IL-6 by ELISA.
# [12] = system: children with colitis or IBD; assay: Children with colitis or IBD treated with methylprednisolone or anti-TNF-α antibody: colonoscopy and clinical status; assay type: in vivo, human
# [13] = children, after vs before dipyridamole (n=7), FIG. 7H
# [14] = dipyridamole 10 mg/kg twice a day vs DSS alone, 3% DSS
# [15] = dipyridamole 10 mg/kg vs DSS alone
molecule,measurement,setting,value
OCCN(CCO)c1nc(N2CCCCC2)c2nc(N(CCO)CCO)nc(N3CCCCC3)c2n1 [dipyridamole],TNF-α expression in colonic mucosa,[1]; [13],significantly reduced
same,macrophage infiltration in colonic mucosa,[1]; [13],significantly reduced
same,PDE4B,[1],inhibited
same,platelet aggregation in the colonic mucosa (CD41 clusters),[2],significantly reduced
same,co-localized activated transcription factors ATF2 and CREB with CD39 in colonic mucosa,[3],increased; also recorded: enhanced
same,expression of TNF-α in monocytes and macrophages,[4],inhibit
same,expression of CD39 in CD8 and CD4 T cells and macrophages of colonic mucosa,"[5]; children, after vs before dipyridamole treatment",increase
same,"CD39 expression in colonic epithelial CD4, CD8 and γδT cells","[6]; dipyridamole 5 mg/kg or 50 mg/kg for 8 days, 2.5% DSS, dose-dependent manner",significantly increased
same,"expression of CD39 in CD4, CD8 and γδT cells",[6]; intraperitoneal injection of dipyridamole at 50 mg/kg,significantly increased
same,cytoplasmic cAMP concentration,[7],significantly increase
same,"clinical, endoscopic and histological severity scores","[8]; after vs before dipyridamole (FIG. 7E, Table 6)",significantly improved
same,adverse reactions,[8]; dipyridamole 3-5 mg/kg/day for 8 to 12 weeks,No obvious adverse reactions
same,CD39 expression during CD8+ T cell activation,[9],significantly increased
same,"Severity score, Post-treatment, median","[10]; after dipyridamole 3-5 mg/kg/day, treatment duration median 4 (2-12) weeks, 23 children, range 0-5, P < 0.0001 vs pre-treatment",1
same,"Platelet counts, Post-treatment, median","[10]; after dipyridamole 3-5 mg/kg/day, 23 children, range 217-497, reference range 140-440, P = 0.0001 vs pre-treatment",296 10^9/L
same,clinical severity score after treatment,[10]; after vs before dipyridamole (FIG. 3d),significantly reduced
same,colon lining (colonoscopy appearance),"[10]; after vs before dipyridamole (FIG. 3d, 3e)",significantly improved
same,"Severity score, Pre-treatment, median","[10]; baseline before dipyridamole, 23 children, range 4-14, scoring criteria of Table 4",9
same,"Platelet counts, Pre-treatment, median","[10]; baseline before dipyridamole, 23 children, range 235-790, reference range 140-440",370 10^9/L
same,adverse reactions,"[10]; children with colitis, dipyridamole 3-5 mg/kg/day",no reports of adverse reactions
same,body weight,[11]; [14],significantly increased
same,colon length,[11]; [14],significantly increased
same,epithelial integrity and structure (HE stained colon sections),[11]; [15],improved
same,platelet aggregation in colonic mucosa (CD41+ clusters),[11]; [15],reduced
same,TNF-α expression in colon mucosa,"[11]; dipyridamole vs DSS alone, ELISA",reduced
C[C@H]1C[C@@H]2[C@H]([C@@H](O)C[C@@]3(C)[C@H]2CC[C@]3(O)C(=O)CO)[C@@]2(C)C=CC(=O)C=C12 [methylprednisolone],macrophage invasion in colonic mucosa,[1],no effect
same,PDE4B,[1],no effect
"anti-TNF-α: Anti-TNF-α drug (Infliximab), anti-TNF-α antibody biologic used to treat colitis and IBD",macrophage invasion in colonic mucosa,[1],no effect
same,appearance of the colon (colonoscopy),"[12]; after vs before treatment, FIG. 6B",improved
same,clinical status / clinical symptoms,"[12]; patients with inflammatory bowel disease, for methylprednisolone some patients only",improved
same,expression of CD39 (CD39 IET) in colonic mucosa,"[5]; children with colitis or IBD, after vs before methylprednisolone (n=5) or anti-TNF-α (n=6), FIG. 6C",no effect
